11 compounds from ChEMBL document CHEMBL5465560, “Selectivity Literature for EUbOPEN Chemogenomic Library” (2024) can be followed below.

The target in test [1] is Mitogen-activated protein kinase kinase kinase 14 (Homo sapiens) (UniProt Q99558). The test can be described thus: Selectivity interaction (Ambit KINOMEscan and KiNATiv profiling in Jurkat cells) EUB0000090b MAP3K14. The class given is cell-based. The following applies: at 1 µM.
Test [2] has as its target Serine/threonine-protein kinase MARK1 (Homo sapiens) (UniProt Q9P0L2). The test can be described thus: Selectivity interaction (SelectScreen profiling (Invitrogen)) EUB0000607a MARK1. The following applies: at 2 µM.
Test [3] deals with Cyclin-dependent kinase-like 1 (Homo sapiens) (UniProt Q00532). To be noted: at 10 µM.
Test [4] has as its target Tyrosine-protein kinase HCK (Homo sapiens) (UniProt P08631). The test can be described thus: Selectivity interaction (KinomeScan (DiscoverX)) EUB0000666a HCK. The following applies: at 10 µM.
Test [5] concerns the target Serine/threonine-protein kinase 32A (Homo sapiens) (UniProt Q8WU08). Briefly: Selectivity interaction (KinomeScan (DiscoverX)) EUB0000666a STK32A. To be noted: at 10 µM.
In test [6] the target is T1, Serine/threonine-protein kinase BRSK1 (Homo sapiens) (UniProt Q8TDC3).
T1 sequence (whole entry): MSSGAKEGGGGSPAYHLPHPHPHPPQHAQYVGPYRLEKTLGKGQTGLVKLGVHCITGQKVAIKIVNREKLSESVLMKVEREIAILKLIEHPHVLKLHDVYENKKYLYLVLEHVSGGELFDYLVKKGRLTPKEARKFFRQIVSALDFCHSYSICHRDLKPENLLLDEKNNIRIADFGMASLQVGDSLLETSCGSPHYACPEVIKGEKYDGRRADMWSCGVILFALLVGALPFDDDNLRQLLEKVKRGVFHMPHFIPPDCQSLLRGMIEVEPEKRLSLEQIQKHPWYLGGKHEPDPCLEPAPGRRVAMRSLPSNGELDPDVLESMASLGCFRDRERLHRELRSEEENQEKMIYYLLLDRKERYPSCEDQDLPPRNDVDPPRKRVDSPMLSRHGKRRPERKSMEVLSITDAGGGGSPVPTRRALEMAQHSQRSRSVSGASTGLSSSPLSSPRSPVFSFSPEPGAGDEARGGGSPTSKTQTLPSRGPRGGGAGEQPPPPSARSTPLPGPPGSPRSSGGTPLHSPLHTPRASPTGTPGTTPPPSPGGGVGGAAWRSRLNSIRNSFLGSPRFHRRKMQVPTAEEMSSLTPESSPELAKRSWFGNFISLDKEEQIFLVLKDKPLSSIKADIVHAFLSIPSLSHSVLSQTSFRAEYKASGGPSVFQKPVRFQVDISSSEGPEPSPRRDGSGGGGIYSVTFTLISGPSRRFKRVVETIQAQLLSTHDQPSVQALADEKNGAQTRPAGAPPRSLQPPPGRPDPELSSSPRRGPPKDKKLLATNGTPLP
The test can be described thus: Selectivity interaction (KinomeScan (DiscoverX)) EUB0000229b BRSK1. The following applies: at 10 µM.

The next test addresses Aurora kinase B (Homo sapiens, UniProt Q96GD4). Briefly: Selectivity interaction (KinomeScan (DiscoverX)) EUB0000655a AURKB. The following applies: at 10 µM.
In test [7] the target is Mitogen-activated protein kinase kinase kinase kinase 4 (Homo sapiens, UniProt O95819). Briefly: Selectivity interaction (KinomeScan (DiscoverX)) EUB0001079a MAP4K4. The following applies: at 1 µM.
The target of a further test is Insulin receptor (Homo sapiens, UniProt P06213). Briefly: Selectivity interaction (Kinase panel (33PanQinase(R) Activity Assay)) EUB0000877a INSR.
For test [8], the target named is Mitogen-activated protein kinase 9 (Homo sapiens, UniProt P45984). The test can be described thus: Selectivity interaction (ActivX KiNativ screen (kinase selectivity in THP-1 cell lysates)) EUB0000639a MAPK9. The test is classed as subcellular. To be noted: lysate.
Test [9] deals with Protein kinase C theta type (Homo sapiens, UniProt Q04759). Briefly: Selectivity interaction (KinomeScan (DiscoverX)) EUB0000092b PRKCQ. To be noted: at 10 µM.
The target of test [10] is Cyclin-dependent kinase 3 (Homo sapiens) (UniProt Q00526). Briefly: Selectivity interaction (KinomeScan (DiscoverX)) EUB0000092b CDK3. The following applies: at 10 µM.
Test [11] concerns the target T2, Cyclin-G-associated kinase (Homo sapiens) (UniProt O14976).
T2 sequence (whole entry): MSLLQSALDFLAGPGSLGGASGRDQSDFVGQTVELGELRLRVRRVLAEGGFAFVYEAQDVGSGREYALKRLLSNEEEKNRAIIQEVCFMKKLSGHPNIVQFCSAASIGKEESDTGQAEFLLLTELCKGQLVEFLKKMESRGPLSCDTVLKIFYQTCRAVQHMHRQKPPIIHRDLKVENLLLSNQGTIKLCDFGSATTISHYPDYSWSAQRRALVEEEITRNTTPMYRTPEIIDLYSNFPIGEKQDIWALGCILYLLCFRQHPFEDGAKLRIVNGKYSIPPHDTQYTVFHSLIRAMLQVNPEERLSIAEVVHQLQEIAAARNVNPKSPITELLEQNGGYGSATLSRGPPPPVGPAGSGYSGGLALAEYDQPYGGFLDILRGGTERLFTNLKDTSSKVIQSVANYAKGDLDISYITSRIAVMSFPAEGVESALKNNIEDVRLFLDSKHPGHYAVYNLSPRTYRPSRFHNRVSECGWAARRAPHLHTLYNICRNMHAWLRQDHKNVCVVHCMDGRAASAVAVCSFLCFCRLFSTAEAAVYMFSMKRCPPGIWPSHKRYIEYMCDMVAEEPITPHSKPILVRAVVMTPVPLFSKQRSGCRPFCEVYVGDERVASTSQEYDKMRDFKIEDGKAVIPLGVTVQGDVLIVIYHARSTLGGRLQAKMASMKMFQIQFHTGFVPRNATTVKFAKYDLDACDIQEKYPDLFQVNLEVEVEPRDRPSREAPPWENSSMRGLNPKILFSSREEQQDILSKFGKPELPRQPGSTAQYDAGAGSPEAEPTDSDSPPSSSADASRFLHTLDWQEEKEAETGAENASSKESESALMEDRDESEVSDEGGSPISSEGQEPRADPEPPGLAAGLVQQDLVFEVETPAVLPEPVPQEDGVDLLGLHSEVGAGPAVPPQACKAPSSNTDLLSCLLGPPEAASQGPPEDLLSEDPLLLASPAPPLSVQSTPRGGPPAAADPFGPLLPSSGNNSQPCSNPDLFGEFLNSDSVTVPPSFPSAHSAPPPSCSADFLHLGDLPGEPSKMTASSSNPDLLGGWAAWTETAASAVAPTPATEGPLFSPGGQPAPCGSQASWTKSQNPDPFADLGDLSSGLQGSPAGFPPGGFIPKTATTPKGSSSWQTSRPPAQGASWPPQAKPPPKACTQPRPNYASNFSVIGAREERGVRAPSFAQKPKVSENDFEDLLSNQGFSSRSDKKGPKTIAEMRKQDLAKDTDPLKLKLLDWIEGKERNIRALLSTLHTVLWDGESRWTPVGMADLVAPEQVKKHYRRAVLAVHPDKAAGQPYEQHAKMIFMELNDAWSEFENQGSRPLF
The test can be described thus: Selectivity interaction (KinomeScan (DiscoverX)) EUB0000618a GAK. The following applies: at 10 µM.

One may read the IC50 as the concentration needed to halve the response being measured.

Mitogen-activated protein kinase 9, sequence (P45984 whole entry, looked up): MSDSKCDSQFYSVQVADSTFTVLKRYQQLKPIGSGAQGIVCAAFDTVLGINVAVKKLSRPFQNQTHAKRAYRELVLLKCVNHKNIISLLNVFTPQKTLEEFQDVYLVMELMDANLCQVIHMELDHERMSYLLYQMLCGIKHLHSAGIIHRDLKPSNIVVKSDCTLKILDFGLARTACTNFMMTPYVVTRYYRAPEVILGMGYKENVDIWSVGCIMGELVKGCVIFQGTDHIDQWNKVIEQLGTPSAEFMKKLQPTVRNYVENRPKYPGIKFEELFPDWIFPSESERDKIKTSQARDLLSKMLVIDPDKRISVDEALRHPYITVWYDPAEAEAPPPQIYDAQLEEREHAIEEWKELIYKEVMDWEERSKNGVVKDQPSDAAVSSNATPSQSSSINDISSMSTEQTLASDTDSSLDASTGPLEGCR
Serine/threonine-protein kinase 32A (Homo sapiens), sequence (Q8WU08 whole entry): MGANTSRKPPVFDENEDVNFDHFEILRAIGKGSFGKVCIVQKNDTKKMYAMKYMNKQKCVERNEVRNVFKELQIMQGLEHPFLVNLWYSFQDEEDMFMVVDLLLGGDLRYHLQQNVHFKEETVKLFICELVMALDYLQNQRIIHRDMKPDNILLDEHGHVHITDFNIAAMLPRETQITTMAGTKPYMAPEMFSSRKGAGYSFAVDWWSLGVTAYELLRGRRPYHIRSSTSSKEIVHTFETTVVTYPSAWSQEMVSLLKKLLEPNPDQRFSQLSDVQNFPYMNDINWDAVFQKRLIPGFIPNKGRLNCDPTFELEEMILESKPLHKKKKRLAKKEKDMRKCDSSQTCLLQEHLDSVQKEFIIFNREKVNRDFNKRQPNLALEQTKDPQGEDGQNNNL
Insulin receptor, sequence (P06213 28-758 limits assumed): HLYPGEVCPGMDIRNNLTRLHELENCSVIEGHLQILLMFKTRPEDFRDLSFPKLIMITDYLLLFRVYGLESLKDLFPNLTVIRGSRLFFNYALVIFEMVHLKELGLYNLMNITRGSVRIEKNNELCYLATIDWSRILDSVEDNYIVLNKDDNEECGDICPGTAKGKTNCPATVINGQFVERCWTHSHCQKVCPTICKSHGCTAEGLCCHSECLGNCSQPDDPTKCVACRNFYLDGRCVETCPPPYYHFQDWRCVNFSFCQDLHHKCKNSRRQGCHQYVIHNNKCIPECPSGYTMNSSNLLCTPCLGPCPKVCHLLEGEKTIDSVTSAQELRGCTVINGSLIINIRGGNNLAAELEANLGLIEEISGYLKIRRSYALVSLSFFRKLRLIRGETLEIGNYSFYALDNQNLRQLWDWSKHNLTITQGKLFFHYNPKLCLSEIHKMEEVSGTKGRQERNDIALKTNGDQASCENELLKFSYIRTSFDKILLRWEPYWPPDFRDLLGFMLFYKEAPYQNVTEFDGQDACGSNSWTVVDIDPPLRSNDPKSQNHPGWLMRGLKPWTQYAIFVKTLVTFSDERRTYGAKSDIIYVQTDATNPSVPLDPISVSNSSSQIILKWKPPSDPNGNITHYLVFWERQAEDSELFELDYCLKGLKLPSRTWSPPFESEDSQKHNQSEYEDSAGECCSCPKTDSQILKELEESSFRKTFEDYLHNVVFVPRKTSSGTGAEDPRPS
Insulin receptor, sequence (P06213 763-1382 limits assumed): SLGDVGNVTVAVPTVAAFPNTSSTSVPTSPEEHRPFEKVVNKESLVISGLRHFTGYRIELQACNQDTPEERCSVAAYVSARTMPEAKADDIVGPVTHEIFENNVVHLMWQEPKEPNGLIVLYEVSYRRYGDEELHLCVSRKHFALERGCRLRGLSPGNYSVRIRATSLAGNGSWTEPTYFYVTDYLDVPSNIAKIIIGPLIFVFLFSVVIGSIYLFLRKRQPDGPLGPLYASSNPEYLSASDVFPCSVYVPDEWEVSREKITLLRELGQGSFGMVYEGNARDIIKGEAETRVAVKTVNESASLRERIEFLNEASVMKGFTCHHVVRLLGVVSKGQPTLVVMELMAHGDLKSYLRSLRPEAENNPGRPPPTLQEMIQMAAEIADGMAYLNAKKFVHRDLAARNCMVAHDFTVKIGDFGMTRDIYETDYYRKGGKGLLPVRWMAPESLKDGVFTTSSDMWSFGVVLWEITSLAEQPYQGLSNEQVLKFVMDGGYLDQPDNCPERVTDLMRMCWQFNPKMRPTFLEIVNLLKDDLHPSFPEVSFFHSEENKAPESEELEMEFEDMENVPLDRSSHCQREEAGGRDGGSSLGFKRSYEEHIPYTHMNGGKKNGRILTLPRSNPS
Mitogen-activated protein kinase kinase kinase 14 (Homo sapiens), sequence (Q99558 whole entry, looked up): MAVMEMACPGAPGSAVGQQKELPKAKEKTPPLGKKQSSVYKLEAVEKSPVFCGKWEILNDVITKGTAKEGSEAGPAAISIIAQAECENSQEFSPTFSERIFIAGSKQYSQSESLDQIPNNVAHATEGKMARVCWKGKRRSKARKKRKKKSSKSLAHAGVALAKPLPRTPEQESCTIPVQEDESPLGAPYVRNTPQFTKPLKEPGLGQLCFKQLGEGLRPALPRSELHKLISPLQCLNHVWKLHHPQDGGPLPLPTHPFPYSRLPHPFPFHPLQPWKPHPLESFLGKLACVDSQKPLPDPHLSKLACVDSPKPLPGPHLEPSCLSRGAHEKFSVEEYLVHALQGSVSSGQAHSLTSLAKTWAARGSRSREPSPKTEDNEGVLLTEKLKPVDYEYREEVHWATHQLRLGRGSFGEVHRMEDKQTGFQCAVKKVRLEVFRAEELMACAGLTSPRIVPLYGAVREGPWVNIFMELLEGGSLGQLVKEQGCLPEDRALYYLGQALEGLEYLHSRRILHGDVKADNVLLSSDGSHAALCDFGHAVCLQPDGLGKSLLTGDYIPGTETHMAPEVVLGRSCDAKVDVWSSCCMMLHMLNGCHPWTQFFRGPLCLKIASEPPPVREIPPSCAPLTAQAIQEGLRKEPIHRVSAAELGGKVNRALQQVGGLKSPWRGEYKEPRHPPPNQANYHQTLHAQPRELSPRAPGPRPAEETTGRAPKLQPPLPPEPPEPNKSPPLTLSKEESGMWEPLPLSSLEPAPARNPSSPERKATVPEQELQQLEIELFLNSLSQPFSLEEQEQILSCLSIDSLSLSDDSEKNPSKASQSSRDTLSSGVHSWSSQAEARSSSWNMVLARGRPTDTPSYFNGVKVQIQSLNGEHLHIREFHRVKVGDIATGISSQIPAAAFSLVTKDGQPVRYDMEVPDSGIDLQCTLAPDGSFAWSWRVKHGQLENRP
Serine/threonine-protein kinase MARK1 (Homo sapiens), sequence (Q9P0L2 whole entry, looked up): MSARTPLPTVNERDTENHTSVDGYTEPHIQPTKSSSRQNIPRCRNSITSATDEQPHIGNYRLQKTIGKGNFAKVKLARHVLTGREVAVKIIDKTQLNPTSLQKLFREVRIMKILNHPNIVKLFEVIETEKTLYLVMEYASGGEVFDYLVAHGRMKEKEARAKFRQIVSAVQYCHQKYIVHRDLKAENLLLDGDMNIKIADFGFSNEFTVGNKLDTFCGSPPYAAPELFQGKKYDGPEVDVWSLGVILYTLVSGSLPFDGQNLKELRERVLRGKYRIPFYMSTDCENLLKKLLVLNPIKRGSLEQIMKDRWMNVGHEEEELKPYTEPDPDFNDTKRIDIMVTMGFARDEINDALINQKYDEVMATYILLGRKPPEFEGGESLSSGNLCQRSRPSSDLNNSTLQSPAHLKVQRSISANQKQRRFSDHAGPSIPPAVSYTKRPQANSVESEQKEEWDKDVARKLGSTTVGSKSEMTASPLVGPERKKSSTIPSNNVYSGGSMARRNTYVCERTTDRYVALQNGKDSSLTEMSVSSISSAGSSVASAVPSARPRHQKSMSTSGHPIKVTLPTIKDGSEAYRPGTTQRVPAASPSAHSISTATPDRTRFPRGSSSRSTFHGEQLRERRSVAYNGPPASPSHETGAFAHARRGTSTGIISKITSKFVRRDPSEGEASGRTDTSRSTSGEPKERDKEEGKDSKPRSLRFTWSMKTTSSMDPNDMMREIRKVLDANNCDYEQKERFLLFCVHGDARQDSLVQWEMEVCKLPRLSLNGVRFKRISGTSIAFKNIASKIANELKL
Aurora kinase B, sequence (Q96GD4 whole entry): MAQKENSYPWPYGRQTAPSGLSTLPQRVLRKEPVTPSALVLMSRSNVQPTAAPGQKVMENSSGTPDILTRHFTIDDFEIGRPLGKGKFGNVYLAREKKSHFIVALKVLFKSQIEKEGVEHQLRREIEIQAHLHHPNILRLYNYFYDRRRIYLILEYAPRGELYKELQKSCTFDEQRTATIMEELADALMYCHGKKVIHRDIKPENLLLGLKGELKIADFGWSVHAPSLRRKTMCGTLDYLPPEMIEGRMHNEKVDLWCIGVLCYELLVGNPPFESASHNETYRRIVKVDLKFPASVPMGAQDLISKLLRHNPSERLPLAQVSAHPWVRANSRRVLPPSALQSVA
Protein kinase C theta type, sequence (Q04759 whole entry, looked up): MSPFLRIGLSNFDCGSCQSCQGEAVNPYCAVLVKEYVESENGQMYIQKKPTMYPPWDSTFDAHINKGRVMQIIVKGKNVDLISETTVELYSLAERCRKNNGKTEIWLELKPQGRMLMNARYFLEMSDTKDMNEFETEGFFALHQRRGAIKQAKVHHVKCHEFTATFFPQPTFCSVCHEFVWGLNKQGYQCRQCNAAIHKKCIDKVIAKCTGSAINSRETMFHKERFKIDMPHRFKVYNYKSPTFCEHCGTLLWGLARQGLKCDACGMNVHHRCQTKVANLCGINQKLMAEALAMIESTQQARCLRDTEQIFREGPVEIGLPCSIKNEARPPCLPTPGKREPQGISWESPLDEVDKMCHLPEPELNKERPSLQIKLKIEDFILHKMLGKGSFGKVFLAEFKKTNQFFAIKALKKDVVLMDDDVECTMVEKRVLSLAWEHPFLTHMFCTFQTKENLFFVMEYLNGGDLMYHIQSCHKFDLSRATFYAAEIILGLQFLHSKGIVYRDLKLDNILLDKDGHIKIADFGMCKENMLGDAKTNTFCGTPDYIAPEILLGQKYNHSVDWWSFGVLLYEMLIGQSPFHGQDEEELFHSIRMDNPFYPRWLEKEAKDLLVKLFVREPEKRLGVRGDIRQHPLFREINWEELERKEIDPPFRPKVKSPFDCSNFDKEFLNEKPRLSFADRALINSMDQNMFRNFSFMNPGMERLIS

As to `CN(C)C/C=C/C(=O)Nc1ccc(C(=O)N2CCCC(Nc3ncc(Cl)c(-c4c[nH]c5ccccc45)n3)C2)cc1` (configuration not stated), the % of control in test [1] is 100%.

In the case of `CNC(=O)Nc1ccc(-c2nc(N3CC4CCC(C3)O4)c3cnn(C4CCC5(CC4)OCCO5)c3n2)cc1`, the % of inhibition in [2] is 13%.

In test [3], `Cc1cc([C@@H](C)Nc2ccccc2C(=O)O)c2nc(N3CCOCC3)cc(=O)n2c1` [AZD-6482] came in with a % of control of 100%.

Consider `O=C(NOC[C@H](O)CO)c1ccc(F)c(F)c1Nc1ccc(I)cc1F`, for which the % of control in test [4] amounted to 100%; in test [5], 80%.

As to `COc1cc(N(C)c2ccnc3ccc(C(F)(F)F)cc23)cc(OC)c1OC`, the % binding in [6] turned out to be 86%.

`CN(C)CCOc1ccc(-c2nc(-c3ccncc3)c(-c3ccc4c(c3)CC/C4=N\O)[nH]2)cc1` showed a % of control at Aurora kinase B of 100%.

In test [7], `Nc1cnc(N2CCc3cc(S(=O)(=O)Nc4c(F)cc(Cl)cc4F)cc(N4CCCC4=O)c32)nc1` [TP-020n] displayed a % of control of 61%.

Regarding `CCC(=O)N1CC[C@H](Nc2ncnc3c2CN(c2cnc(OC)c(C(F)(F)F)c2)CC3)C1` [LENIOLISIB], the half-maximal inhibitory concentration (IC50) against Insulin receptor was > 10 µM.

Consider `CC[C@@H]1[C@H](F)C(=O)N[C@@H]1COc1nccc2cc(C(N)=O)c(OC)cc12` [ZIMLOVISERTIB], for which the % of inhibition in test [8] (at 0.01 µM) is 13.3%; in test [8] (at 0.04 µM), -1.4%; in [8] (at 0.2 µM) it was 1.6%; in test [8] (at 1 µM), 27.7%; in test [8] (at 5 µM), 57.5%.

On to `CCC(=O)N1CCN(c2ccc(-n3c(=O)ccc4cnc5ccc(-c6cnc7ccccc7c6)cc5c43)cc2C(F)(F)F)CC1`, for which the values for the % of control in [9] and in test [10] were 91% and 100%, respectively.

With `O[C@H]1CC[C@H](Nc2ncc3nc(Nc4c(F)cc(F)cc4F)n([C@H]4CCOC4)c3n2)CC1`, the % of control in test [11] amounted to 13%.
